Data published in patent publication EP4711366A1, “PYRIMIDO MACROHETEROCYCLIC COMPOUND AS WEE1-YES DUAL-TARGET INHIBITOR AND USE THEREOF” (Mindrank AI Ltd., priority 2023, dated 2024).
Blank lines part the entries; values can stand above or below the compound they belong to.

Experiments:
Wee1 kinase = Wee1 kinase (Homo sapiens, UniProt P30291); assay: WEE1 protein kinase inhibitory activity assay (ADP-GLO luminescence); assay type: biochemical; conditions: for IC50: Wee1 10 ng/well, ATP 10 µM, 3 h, 37 °C; for inhibition of the Weel target (in words): summary statement on the assay results
Experimental: The influence of the compound MRANK-106 of the present disclosure on the kinase activity of Weel was assessed using an in vitro kinase reaction system.
Table 2-1. Information about reagents and consumables
① 1× kinase buffer: A 5× kinase buffer was diluted with ddH2O to make a 1× kinase buffer. Table 2-3. The reagent components added to the 1× kinase buffer
③ 5× enzyme working solution: The optimization of the enzyme concentration had been completed in previous work, and the concentration of the reagent used in the screening is shown in Table 2-4. A 5× enzyme working solution of the enzyme was formulated using the 1× kinase buffer.
④ Compound formulation: A 10 mM mother liquor was formulated using DMSO, aliquoted, and then stored at -20 °C. Immediately before use, the mother liquor was thawed, diluted with DMSO to 1 mM, serially diluted 4-fold to 10 concentration points, and then 40-fold diluted with the 1× kinase buffer to give a 2.5× working solution. Table 2-4. The experimental conditions for the kinase activity assay
After the above reagents were formulated and equilibrated to room temperature, 4 µL of the diluted solution of the compound to be tested and 2 µL of the formulated enzyme solution were added to reaction wells. After shaking and centrifugation, the plate was incubated at room temperature for 15 min, and 4 µL of the ATP solution was then added to start a kinase reaction. After 3 h of reaction at 37 °C, 10 µL of an ADP-GLO reagent was added. After thorough mixing, the mixture was left to react at room temperature for 40 min, and 20 µL of a detection reagent was then added. After 30 min of reaction at room temperature, the luminescence signals were detected using a SpectraMax L instrument. Two independent duplicate assays were performed. The inhibition rate of each well was calculated based on all activity wells and background signal wells, with an average calculated for duplicate wells. Meanwhile, the inhibition rate was plotted using the professional graphing and analysis software PRISM 9.0, and the IC50 was calculated.
The inhibition rates of the compounds to be tested against the kinase activity of Wee1 were calculated using the following formula: Inhibition rate% = (Lumvehicle−Lumcompound)/(Lumvehicle−Lumblank) × 100% [formula] • Lumcompound: the luminescence of the sample treatment groups • Lumvehicle: the luminescence of the solvent control group • Lumblank: the luminescence of the blank group

YES1 kinase = YES1 kinase (Homo sapiens, UniProt P07947); assay: YES1 protein kinase inhibitory activity assay (HTRF); assay type: biochemical; conditions: for IC50: HTRF, YES1 kinase, ATP 10 µM; for inhibition of the Yes target (in words): summary statement on the assay results
Experimental: In this experiment, the capability of the compound MRANK-106 of the present disclosure to inhibit kinase activity was assessed by an HTRF method using a drug screening system based on the YES1 kinase.
Table 3-1. Information about reagents and consumables
The enzymatic activity conditions and HTRF system formulation are shown in Table 3-3; the experimental conditions for the kinase activity assay are shown in Table 3-4. Table 3-3. HTRF system formulation
Table 3-4. The experimental conditions for the kinase activity assay
The test compound MRANK-106 was dissolved in DMSO, and the solution was vortexed and shaken for thorough mixing. The solution was serially diluted 3-fold with DMSO, with the initial concentration being 503 nM.
① A 2× ATP/substrate solution and a 2× kinase solution were formulated using a kinase reaction buffer.
② 50 nL of the compound dilution was transferred to a 384 detection plate using Echo 655. After centrifugation, 2.5 µL of a 2× kinase solution was added to the 384 detection plate. The plate was centrifuged at 1000 rpm for 1 min and incubated at 25 °C for 10 min.
② 2.5 µL of the 2× substrate and ATP solution was added to the 384 detection plate, and the plate was centrifuged at 1000 rpm for 1 min and incubated at 25 °C for 60 min.
④ A 2× XL665 and antibody detection reagent was formulated using a detection buffer.
⑤ 5 µL of a kinase detection reagent was added to the detection plate, and the plate was incubated at 25 °C. The plate was centrifuged at 1000 rpm for 1 min and incubated at 25 °C for 1 h.
⑥ The fluorescence signals at 620 nm (Cryptate) and 665 nm (XL665) were read using a BMG high-throughput drug-screening multi-mode microplate reader.
With the reading of the negative control set as an inhibition rate of 0% and the reading of the positive control set as an inhibition rate of 100%, the inhibition rate of each test solution was calculated using the following formula: [formula] • Datapositive control: the average of the positive control well values • Datanegative control : the average of the negative control well values
The IC50 (half maximal inhibitory concentration) of the compound was obtained using the following nonlinear fitting formulas: Y = Bottom + (Top−Bottom)/(1+10^(∧)((LogIC50−X)*HillSlope)) [formula] • X: the log value of the compound concentration • Y: the inhibition rate (% inh) of the compound
The Z' factor calculation equation: Z′ = 1−3(SDmin+SDmax)/(AVEmax−AVEmin) [formula] where: • Min is the positive control Data value, and Max is the negative control DMSO Data value; • SD stands for standard deviation, and AVE stands for average.

YES1 kinase, sequence (P07947 whole entry): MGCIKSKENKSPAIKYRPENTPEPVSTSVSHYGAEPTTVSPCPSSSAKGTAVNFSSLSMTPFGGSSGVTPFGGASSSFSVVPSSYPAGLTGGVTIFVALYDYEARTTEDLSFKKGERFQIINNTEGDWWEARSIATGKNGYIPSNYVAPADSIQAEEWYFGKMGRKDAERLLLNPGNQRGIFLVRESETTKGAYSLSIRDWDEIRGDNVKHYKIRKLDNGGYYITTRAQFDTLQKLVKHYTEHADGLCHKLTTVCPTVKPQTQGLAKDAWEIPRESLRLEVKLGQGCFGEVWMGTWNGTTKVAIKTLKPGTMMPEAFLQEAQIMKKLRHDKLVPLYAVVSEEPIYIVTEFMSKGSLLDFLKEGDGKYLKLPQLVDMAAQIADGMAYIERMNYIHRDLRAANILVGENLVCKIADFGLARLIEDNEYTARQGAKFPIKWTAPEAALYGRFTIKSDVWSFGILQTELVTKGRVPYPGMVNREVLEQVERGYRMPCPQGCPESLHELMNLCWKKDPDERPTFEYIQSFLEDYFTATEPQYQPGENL
Wee1 kinase, sequence (P30291 whole entry): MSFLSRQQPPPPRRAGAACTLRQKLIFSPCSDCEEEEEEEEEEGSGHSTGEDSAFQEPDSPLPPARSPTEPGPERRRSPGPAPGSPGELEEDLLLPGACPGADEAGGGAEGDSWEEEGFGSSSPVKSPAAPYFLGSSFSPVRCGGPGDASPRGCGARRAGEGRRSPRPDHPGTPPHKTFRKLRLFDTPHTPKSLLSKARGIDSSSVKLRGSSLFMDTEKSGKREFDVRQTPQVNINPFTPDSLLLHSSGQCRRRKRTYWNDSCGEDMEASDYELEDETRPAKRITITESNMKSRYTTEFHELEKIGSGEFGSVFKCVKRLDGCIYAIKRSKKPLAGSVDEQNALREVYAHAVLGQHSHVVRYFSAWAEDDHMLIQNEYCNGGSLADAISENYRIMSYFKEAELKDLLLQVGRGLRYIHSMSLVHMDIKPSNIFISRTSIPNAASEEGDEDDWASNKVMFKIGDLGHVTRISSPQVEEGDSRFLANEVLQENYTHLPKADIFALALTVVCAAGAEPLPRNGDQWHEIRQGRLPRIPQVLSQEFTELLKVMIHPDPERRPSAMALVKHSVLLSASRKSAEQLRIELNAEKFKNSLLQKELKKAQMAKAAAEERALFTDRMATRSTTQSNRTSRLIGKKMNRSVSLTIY

Compound: Cc1cc(Nc2ncc3c(=O)n4n(c3n2)-c2cccc(n2)C(C)(O)CC/C=C\C4)ccc1O[C@H]1CCN(C)C1 (stereo partly drawn) [Compound 186, (R,Z)-12-hydroxy-12-methyl-2-((3-methyl-4-(((S)-1-methylpyrrolidin-3-yl)oxy)phenyl)amino)-7,10,11,12-tetrahydro-5H-13,17-(azeno)pyrimido[4',5':3,4]pyrazolo[1,2-a][1,2]diazacyclotridecin-5-one]
IC50 (Wee1 kinase): 18.7 nM

Compound: CN1CC2CC(Oc3ccc(Nc4ncc5c(=O)n6n(c5n4)-c4cccc(n4)C(C)(O)CCC=CC6)cc3C(F)(F)F)CC2C1 (stereo not drawn) [Compound 223, (Z)-12-hydroxy-12-methyl-2-((4-((2-methyloctahydrocyclopenta[c]pyrrol-5-yl)oxy)-3-(trifluoromethyl)phenyl)amino)-7,10,11,12-tetrahydro-5H-13,17-(azeno)pyrimido[4',5':3,4]pyrazolo[1,2-a][1,2]diazacyclotridecin-5-one]
IC50 (YES1 kinase): 21.8 nM | inhibition of the Yes target (in words) (YES1 kinase): strongly inhibited | IC50 (Wee1 kinase): 18.7 nM | inhibition of the Weel target (in words) (Wee1 kinase): strongly inhibited

Compound: Cc1cc(Nc2ncc3c(=O)n4n(c3n2)-c2cccc(n2)C(C)(O)CCC=CC4)ccc1NC1CC2CCC(C1)N2C (single isomer, unassigned) [Compound 225A]
IC50 (Wee1 kinase): 20.4 nM

Compound: Cc1cc(Nc2ncc3c(=O)n4n(c3n2)-c2cccc(n2)C(C)(O)CC/C=C\C4)ccc1O[C@@H]1CCN(C)C1 (stereo partly drawn) [Compound 183, (R,Z)-12-hydroxy-12-methyl-2-((3-methyl-4-(((R)-1-methylpyrrolidin-3-yl)oxy)phenyl)amino)-7,10,11,12-tetrahydro-5H-13,17-(azeno)pyrimido[4',5':3,4]pyrazolo[1,2-a][1,2]diazacyclotridecin-5-one]
IC50 (Wee1 kinase): 16.1 nM

Compound: CCOP1(=O)CCN(c2ccc(Nc3ncc4c(=O)n5n(c4n3)-c3cccc(n3)C(C)(O)CCC=CC5)cc2)CC1 (stereo not drawn) [Compound 181, (Z)-2-((4-(4-ethoxy-4-oxido-1,4-azaphosphinan-1-yl)phenyl)amino)-12-hydroxy-12-methyl-7,10,11,12-tetrahydro-5H-13,17-(azeno)pyrimido[4',5':3,4]pyrazolo[1,2-a][1,2]diazacyclotridecin-5-one]
IC50 (YES1 kinase): 117 nM | IC50 (Wee1 kinase): 33.2 nM

Compound: Cc1cc(Nc2ncc3c(=O)n4n(c3n2)-c2cccc(n2)[C@@](C)(O)CCC=CC4)ccc1OC1CCN(C)CC1 [Compound 134, (S,Z)-12-hydroxy-12-methyl-2-((3-methyl-4-((1-methylpiperidin-4-yl)oxy)phenyl)amino)-7,10,11,12-tetrahydro-5H-13,17-(azeno)pyrimido[4',5':3,4]pyrazolo[1,2-a][1,2]diazacyclotridecin-5-one]
IC50 (YES1 kinase): 68.9 nM | inhibition of the Yes target (in words) (YES1 kinase): strongly inhibited | IC50 (Wee1 kinase): 21 nM | inhibition of the Weel target (in words) (Wee1 kinase): strongly inhibited

Compound: Cc1cc(Nc2ncc3c(=O)n4n(c3n2)-c2cccc(n2)C(C)(O)CCC=CC4)ccc1OC1CCN(CC(F)(F)F)CC1 (stereo not drawn) [Compound 206, (Z)-12-hydroxy-12-methyl-2-((3-methyl-4-((1-(2,2,2-trifluoroethyl)piperidin-4-yl)oxy)phenyl)amino)-7,10,11,12-tetrahydro-5H-13,17-(azeno)pyrimido[4',5':3,4]pyrazolo[1,2-a][1,2]diazacyclotridecin-5-one]
IC50 (YES1 kinase): 130 nM

Compound: CN1CCN(C(=O)c2ccc(Nc3ncc4c(=O)n5n(c4n3)-c3cccc(n3)C(C)(O)CC/C=C\C5)cc2)CC1 [Compound 185, (R,Z)-12-hydroxy-12-methyl-2-((4-(4-methylpiperazine-1-carbonyl)phenyl)amino)-7,10,11,12-tetrahydro-5H-13,17-(azeno)pyrimido[4',5':3,4]pyrazolo[1,2-a][1,2]diazacyclotridecin-5-one]
IC50 (YES1 kinase): 129 nM

Compound: CCOP1(=O)CCN(c2ccc(Nc3ncc4c(=O)n5n(c4n3)-c3cccc(n3)C(C)(O)CCC=CC5)cc2F)CC1 (stereo not drawn) [Compound 180, (Z)-2-((4-(4-ethoxy-4-oxido-1,4-azaphosphinan-1-yl)-3-fluorophenyl)amino)-12-hydroxy-12-methyl-7,10,11,12-tetrahydro-5H-13,17-(azeno)pyrimido[4',5':3,4]pyrazolo[1,2-a][1,2]diazacyclotridecin-5-one]
IC50 (YES1 kinase): 52.5 nM | inhibition of the Yes target (in words) (YES1 kinase): strongly inhibited | inhibition of the Weel target (in words) (Wee1 kinase): strongly inhibited

Compound: Cc1cc(Nc2ncc3c(=O)n4n(c3n2)-c2cccc(n2)[C@@](C)(O)CCCCC4)ccc1OC1CCN(C)CC1 [Compound 29, (S)-12-hydroxy-12-methyl-2-((3-methyl-4-((1-methylpiperidin-4-yl)oxy)phenyl)amino)-7,8,9,10,11,12-hexahydro-5H-13,17-(azeno)pyrimido[4',5':3,4]pyrazolo[1,2-a][1,2]diazacyclotridecin-5-one]
IC50 (Wee1 kinase): 67 nM

Compound: Cc1cc(Nc2ncc3c(=O)n4n(c3n2)-c2cccc(n2)C(C)(O)CCC=CC4)ccc1CN1CCN(C)CC1=O (stereo not drawn) [Compound 199, (Z)-12-hydroxy-12-methyl-2-((3-methyl-4-((4-methyl-2-oxopiperazin-1-yl)methyl)phenyl)amino)-7,10,11,12-tetrahydro-5H-13,17-(azeno)pyrimido[4',5':3,4]pyrazolo[1,2-a][1,2]diazacyclotridecin-5-one]
IC50 (YES1 kinase): 59.1 nM | inhibition of the Yes target (in words) (YES1 kinase): strongly inhibited | inhibition of the Weel target (in words) (Wee1 kinase): strongly inhibited

The remaining lines, values ahead:

IC50 (YES1 kinase): 43 nM
Compound: CN(C)S(=O)(=O)c1ccc2c(c1)/C(=C/c1cc3c([nH]1)CCCC3)C(=O)N2 [SU6656]

IC50 (YES1 kinase): 346 nM | IC50 (Wee1 kinase): 5.4 nM
Compound: [2H]C([2H])([2H])N1CCC(Oc2ccc(Nc3ncc4c(=O)n5n(c4n3)-c3cccc(n3)[C@@](C)(O)CCC=CC5)cc2C)CC1 (single isomer, unassigned) [Compound 171B]

IC50 (Wee1 kinase): 12.8 nM
Compound: Cc1cc(Nc2ncc3c(=O)n4n(c3n2)-c2cccc(n2)C(C)(O)CC/C=C\C4)ccc1OC1CC2CN(C)CC2C1 (single isomer, unassigned) [Compound 224A]

IC50 (Wee1 kinase): 13.1 nM
Compound: Cc1cc(Nc2ncc3c(=O)n4n(c3n2)-c2cccc(n2)C(C)(O)CC/C=C\C4)ccc1CN1CCN(C)CC1 (single isomer, unassigned) [Compound 219A]
